The record followed here is ChEMBL document CHEMBL1268981, “2-Methyl-3-furanyl-4H-1,2,4-triazol-3-ylthioamides: a new class of selective orexin 2 antagonists” (Bioorg Med Chem Lett, 2010).

Test [1] has as its target T1, Orexin/Hypocretin receptor type 1 (Homo sapiens, UniProt O43613).
T1 sequence (O43613 whole entry): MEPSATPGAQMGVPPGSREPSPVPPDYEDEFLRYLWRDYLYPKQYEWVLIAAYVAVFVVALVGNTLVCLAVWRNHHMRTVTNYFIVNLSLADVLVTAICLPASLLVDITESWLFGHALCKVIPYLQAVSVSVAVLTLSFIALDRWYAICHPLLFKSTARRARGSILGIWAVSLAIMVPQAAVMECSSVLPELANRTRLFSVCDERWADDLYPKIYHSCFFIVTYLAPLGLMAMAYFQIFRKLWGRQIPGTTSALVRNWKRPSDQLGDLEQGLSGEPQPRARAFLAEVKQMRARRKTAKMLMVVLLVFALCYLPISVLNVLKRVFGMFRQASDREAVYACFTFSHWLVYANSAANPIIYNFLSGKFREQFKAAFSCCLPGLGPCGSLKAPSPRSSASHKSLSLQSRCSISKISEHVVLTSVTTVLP
In words: Antagonist activity against human orexin 1 receptor expressed in CHO cells assessed as effect in calcium mobilization by FLIPR assay. The class given is functional, cell-based. Background: Calcium flux is commonly read through the fluorescence of an indicator in the cells.

In another test the target is T2, Orexin receptor type 2 (Homo sapiens, UniProt O43614).
T2 sequence (O43614 whole entry): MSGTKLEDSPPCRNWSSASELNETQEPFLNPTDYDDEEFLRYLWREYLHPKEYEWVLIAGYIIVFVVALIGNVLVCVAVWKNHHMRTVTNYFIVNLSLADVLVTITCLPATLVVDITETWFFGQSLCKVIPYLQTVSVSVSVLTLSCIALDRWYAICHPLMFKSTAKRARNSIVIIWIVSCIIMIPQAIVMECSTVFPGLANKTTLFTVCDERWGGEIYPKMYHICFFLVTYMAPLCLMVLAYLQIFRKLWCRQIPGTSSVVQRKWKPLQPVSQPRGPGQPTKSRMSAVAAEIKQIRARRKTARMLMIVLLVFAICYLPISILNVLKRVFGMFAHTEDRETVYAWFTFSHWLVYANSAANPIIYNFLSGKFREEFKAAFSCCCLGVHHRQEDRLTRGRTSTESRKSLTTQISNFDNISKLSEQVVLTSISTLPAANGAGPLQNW
In words: Antagonist activity against human orexin 2 receptor expressed in CHO cells assessed as effect in calcium mobilization by FLIPR assay. The class given is functional, cell-based.

Another test concerns the target Cytochrome P450 2C19 (Homo sapiens, UniProt P33261). The test is described as follows: Inhibition of CYP2C19 by CYPEX bactosome P450 inhibition assay. The class given is ADME.
Test [2] addresses T3, Orexin receptor type 2 (Rattus norvegicus) (UniProt P56719).
T3 sequence (whole entry): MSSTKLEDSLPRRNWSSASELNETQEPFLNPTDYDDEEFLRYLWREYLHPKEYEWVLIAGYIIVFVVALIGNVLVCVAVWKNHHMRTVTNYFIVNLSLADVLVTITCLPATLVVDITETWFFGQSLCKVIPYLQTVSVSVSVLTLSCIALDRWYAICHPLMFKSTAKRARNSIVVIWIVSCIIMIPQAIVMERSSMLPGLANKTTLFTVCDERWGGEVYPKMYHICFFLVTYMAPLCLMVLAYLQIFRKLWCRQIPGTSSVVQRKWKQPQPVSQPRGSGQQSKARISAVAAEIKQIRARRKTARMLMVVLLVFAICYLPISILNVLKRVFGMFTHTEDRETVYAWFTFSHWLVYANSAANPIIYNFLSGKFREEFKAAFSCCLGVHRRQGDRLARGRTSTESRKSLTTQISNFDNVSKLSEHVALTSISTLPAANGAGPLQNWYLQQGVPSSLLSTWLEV
The test is described as follows: Antagonist activity against rat orexin 2 receptor expressed in RBL cells by [3H]inositol phosphate accumulation assay. The format is functional, cell-based.

Another test concerns the target Cytochrome P450 2C9 (Homo sapiens, UniProt P11712). The test is described as follows: Inhibition of CYP2C9 by CYPEX bactosome P450 inhibition assay. The format is ADME.
The target in a further test is T4, Cytochrome P450 1A2 (Homo sapiens, UniProt P05177).
T4 sequence (P05177 whole entry): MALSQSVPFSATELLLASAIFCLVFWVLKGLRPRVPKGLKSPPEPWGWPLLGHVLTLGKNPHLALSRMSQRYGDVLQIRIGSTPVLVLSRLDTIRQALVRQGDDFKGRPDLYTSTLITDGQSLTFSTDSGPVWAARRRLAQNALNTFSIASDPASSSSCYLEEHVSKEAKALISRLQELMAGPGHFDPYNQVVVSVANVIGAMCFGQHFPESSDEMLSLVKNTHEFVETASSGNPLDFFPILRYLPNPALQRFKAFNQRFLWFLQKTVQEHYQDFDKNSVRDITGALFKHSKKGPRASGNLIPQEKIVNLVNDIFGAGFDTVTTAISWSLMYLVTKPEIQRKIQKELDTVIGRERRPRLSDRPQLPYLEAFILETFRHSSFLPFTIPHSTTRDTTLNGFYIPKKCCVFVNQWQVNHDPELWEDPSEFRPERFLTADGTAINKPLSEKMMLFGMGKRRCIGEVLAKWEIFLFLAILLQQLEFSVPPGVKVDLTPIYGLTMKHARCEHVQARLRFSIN
In words: Inhibition of CYP1A2 by CYPEX bactosome P450 inhibition assay. The format is ADME.

Test [3] concerns the target T5, Cytochrome P450 3A4 (Homo sapiens, UniProt P08684). In words: Inhibition of CYP3A4 using DEF substrate by CYPEX bactosome P450 inhibition assay. The class given is ADME.
Another test addresses Cytochrome P450 2D6 (Homo sapiens, UniProt P10635). In words: Inhibition of CYP2D6 by CYPEX bactosome P450 inhibition assay. The format is ADME.
Test [4] addresses T6, Orexin/Hypocretin receptor type 1 (Rattus norvegicus) (UniProt P56718).
T6 sequence (whole entry): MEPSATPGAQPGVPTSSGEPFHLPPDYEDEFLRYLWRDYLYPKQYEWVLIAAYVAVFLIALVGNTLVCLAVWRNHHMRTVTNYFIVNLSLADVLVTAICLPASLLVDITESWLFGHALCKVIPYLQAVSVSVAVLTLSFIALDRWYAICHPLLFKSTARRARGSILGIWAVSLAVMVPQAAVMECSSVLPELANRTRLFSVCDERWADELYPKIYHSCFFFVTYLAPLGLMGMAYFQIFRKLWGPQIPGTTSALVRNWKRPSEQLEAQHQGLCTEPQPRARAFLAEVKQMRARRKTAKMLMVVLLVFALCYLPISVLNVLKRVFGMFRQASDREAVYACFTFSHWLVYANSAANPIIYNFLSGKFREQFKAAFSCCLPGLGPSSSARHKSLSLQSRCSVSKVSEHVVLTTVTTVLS
In words: Antagonist activity against rat orexin 1 receptor expressed in RBL cells by [3H]inositol phosphate accumulation assay. The class given is functional, cell-based.

For test [5], the target named is T5, Cytochrome P450 3A4. In words: Inhibition of CYP3A4 by CYPEX bactosome P450 inhibition assay. The class given is ADME.

Active and inactive are the calls of the source. The calls are words filed in the database; no cut-off is given here.

T5 sequence (P08684 whole entry): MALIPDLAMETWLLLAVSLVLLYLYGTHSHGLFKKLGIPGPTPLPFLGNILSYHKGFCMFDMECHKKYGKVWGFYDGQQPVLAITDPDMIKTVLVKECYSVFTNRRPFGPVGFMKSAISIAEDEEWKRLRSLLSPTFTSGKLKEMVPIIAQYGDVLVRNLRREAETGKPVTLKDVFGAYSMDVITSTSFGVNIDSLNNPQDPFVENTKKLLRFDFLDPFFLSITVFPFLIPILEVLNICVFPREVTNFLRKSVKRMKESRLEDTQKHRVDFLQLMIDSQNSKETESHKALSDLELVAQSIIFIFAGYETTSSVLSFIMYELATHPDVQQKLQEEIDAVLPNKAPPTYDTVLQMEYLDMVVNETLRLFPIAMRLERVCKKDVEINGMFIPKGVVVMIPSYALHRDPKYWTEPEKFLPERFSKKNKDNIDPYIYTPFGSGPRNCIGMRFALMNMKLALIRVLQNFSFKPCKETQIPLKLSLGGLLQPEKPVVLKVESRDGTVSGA
Chain of Cytochrome P450 2D6 (P10635 whole entry): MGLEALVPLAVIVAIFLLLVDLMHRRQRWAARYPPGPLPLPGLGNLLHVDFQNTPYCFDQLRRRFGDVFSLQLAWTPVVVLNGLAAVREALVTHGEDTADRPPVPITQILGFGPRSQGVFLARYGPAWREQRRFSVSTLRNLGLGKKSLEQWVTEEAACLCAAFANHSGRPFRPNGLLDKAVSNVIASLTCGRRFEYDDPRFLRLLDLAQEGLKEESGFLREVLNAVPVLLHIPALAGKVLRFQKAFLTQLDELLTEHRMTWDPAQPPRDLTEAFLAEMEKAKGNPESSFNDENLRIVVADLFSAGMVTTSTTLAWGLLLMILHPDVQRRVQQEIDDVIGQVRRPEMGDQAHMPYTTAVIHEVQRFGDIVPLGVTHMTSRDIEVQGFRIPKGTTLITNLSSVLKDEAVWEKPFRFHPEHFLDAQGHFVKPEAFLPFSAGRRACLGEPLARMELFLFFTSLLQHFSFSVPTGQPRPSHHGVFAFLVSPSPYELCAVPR
Chain of Cytochrome P450 2C9 (P11712 whole entry): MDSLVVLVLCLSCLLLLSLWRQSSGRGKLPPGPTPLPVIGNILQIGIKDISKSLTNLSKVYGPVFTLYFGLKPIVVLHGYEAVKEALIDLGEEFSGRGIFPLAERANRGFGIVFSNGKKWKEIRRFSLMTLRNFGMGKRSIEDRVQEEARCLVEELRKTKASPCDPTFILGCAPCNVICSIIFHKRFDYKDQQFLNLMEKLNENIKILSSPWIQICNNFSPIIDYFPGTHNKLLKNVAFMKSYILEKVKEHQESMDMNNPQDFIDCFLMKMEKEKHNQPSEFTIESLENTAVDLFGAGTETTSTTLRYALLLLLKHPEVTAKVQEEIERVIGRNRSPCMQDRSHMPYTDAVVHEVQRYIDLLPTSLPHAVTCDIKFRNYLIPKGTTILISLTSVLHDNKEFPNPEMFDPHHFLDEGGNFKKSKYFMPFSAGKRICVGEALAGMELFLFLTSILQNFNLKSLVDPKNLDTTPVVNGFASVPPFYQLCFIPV
Chain of Cytochrome P450 2C19 (P33261 whole entry): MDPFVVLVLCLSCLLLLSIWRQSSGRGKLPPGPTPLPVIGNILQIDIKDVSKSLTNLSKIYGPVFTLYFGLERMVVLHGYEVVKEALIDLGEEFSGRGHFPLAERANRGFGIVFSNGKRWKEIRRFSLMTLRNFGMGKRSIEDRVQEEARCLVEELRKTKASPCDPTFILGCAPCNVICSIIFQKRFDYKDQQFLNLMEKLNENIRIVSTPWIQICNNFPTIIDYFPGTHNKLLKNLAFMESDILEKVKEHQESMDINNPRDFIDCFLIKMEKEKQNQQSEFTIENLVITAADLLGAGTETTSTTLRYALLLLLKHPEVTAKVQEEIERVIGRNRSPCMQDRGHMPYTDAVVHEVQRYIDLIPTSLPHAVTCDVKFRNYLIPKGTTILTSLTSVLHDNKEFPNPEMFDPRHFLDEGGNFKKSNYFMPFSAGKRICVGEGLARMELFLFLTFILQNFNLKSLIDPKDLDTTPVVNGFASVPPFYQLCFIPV

Usually Ki stands for the equilibrium dissociation constant of an inhibitor or competing ligand from its target. For the compound `Cc1ccc(NC(=O)CSc2nnc(-c3ccoc3C)n2Cc2ccco2)cc1`, the Ki in test [1] was over 15.8 µM; at Orexin receptor type 2, 0.0398 µM.
The corresponding values for `Cc1cccc(NC(=O)CSc2nnc(-c3ccoc3C)n2Cc2ccco2)c1C` are over 15.8 µM and over 15.8 µM.
The corresponding values for `Cc1nc(C(=O)N2CCCC[C@H]2CNC(=O)c2cccc3occc23)c(-c2ccc(F)cc2)s1` [SB-649868] are 0.000316 µM and 0.000398 µM.
The like results for `Cc1occc1-c1nnc(SCC(=O)Nc2ccc(F)c(Cl)c2)n1Cc1ccco1` were, in that order, 1 µM and 0.0398 µM.
`CCC(C)NC(=O)CSc1nnc(-c2ccoc2C)n1Cc1ccco1` (stereo not given): the Ki (in test [1]; on Orexin receptor type 2) was over 15.8 µM throughout.
For `COc1ccc(NC(=O)CSc2nnc(-c3ccoc3C)n2Cc2ccco2)cc1`, the Ki was over 15.8 µM in test [1] and 0.2 µM at Orexin receptor type 2.
The corresponding values for `Cc1occc1-c1nnc(SCC(=O)Nc2ccc(F)cc2)n1Cc1ccco1` are over 15.8 µM and 0.158 µM.
Take `Cc1ccccc1NC(=O)CSc1nnc(-c2ccoc2C)n1Cc1ccco1`: the Ki (in test [1]; on Orexin receptor type 2) was over 15.8 µM each time.
Regarding `CC(=O)c1cccc(NC(=O)CSc2nnc(-c3ccoc3C)n2Cc2ccco2)c1`, the Ki in test [1] was 3.16 µM; at Orexin receptor type 2, 0.316 µM.
The like results for `Cc1occc1-c1nnc(SCC(=O)Nc2ccc(Cl)cc2)n1Cc1ccco1` were, in that order, 2 µM and 0.1 µM.
The corresponding values for `Cc1occc1-c1nnc(SCC(=O)NCCc2ccccc2)n1Cc1ccco1` are over 15.8 µM and 1.58 µM.
The corresponding values for `CC(=O)c1ccc(NC(=O)CSc2nnc(-c3ccoc3C)n2Cc2ccco2)cc1` are 2.51 µM and 0.0316 µM.
In the case of `Cc1occc1-c1nnc(SCC(=O)Nc2cccc(Cl)c2)n1Cc1ccco1`, the Ki in [1] was 2 µM; on Orexin receptor type 2 it was 0.0631 µM.
The corresponding values for `Cc1occc1-c1nnc(SCC(=O)Nc2ccc(N(C)C)cc2)n1Cc1ccco1` are 0.794 µM and 0.158 µM.
As to `Cc1occc1-c1nnc(SCC(=O)Nc2cccc(-c3ccc4c(c3)OCO4)c2)n1Cc1ccco1`, the Ki in test [1] was over 15.8 µM; on Orexin receptor type 2, 0.251 µM.
The corresponding values for `Cc1cccc(C)c1NC(=O)CSc1nnc(-c2ccoc2C)n1Cc1ccco1` are over 15.8 µM and over 15.8 µM.
For `Cc1ccc(C)c(NC(=O)CSc2nnc(-c3ccoc3C)n2Cc2ccco2)c1`, in test [1], the inhibition constant Ki was over 15.8 µM.
In the case of `Cc1occc1-c1nnc(SCC(=O)Nc2ccccc2)n1Cc1ccco1`, the Ki in test [1] is over 15.8 µM; on Orexin receptor type 2, 1 µM.
The like results for `Cc1nnc(NC(=O)CSc2nnc(-c3ccoc3C)n2Cc2ccco2)s1` were, in that order, over 15.8 µM and 0.398 µM.
For `Cc1cc(C)cc(N(C(=O)CSc2nnc(-c3ccoc3C)n2Cc2ccco2)c2cccnc2)c1`, the results for the Ki (in test [1]; on Orexin receptor type 2) were over 15.8 µM and 2 µM, respectively.
The corresponding values for `Cc1cccc(NC(=O)CSc2nnc(-c3ccoc3C)n2Cc2ccco2)c1` are 2.51 µM and 0.0501 µM.
The corresponding values for `Cc1ccc(NC(=O)CSc2nnc(-c3ccoc3C)n2Cc2ccco2)cc1C` are 0.631 µM and 0.00251 µM.
With `Cc1occc1-c1nnc(SCC(=O)NN2CCc3ccccc32)n1Cc1ccco1`, the Ki in test [1] is over 15.8 µM; at Orexin receptor type 2, 1 µM.
The corresponding values for `Cc1csc(NC(=O)CSc2nnc(-c3ccoc3C)n2Cc2ccco2)n1` are over 15.8 µM and 0.1 µM.
The corresponding values for `Cc1occc1-c1nnc(SCC(N)=O)n1Cc1ccco1` are over 15.8 µM and over 15.8 µM.
The like results for `Cc1occc1-c1nnc(SCC(=O)Nc2nccs2)n1Cc1ccco1` were, in that order, over 15.8 µM and 1 µM.
With `Cc1occc1-c1nnc(SCC(=O)Nc2cccc(F)c2)n1Cc1ccco1`, the Ki is over 15.8 µM in test [1] and 0.501 µM at Orexin receptor type 2.
For `COc1ccc(C)cc1NC(=O)CSc1nnc(-c2ccoc2C)n1Cc1ccco1`, the Ki in test [1] is 2.51 µM; at Orexin receptor type 2, 0.0158 µM.
Turning to `Cc1occc1-c1nnc(SCC(=O)Nc2ccccc2F)n1Cc1ccco1`, the Ki is over 15.8 µM in test [1] and 2 µM on Orexin receptor type 2.
The like results for `Cc1cc(C)cc(N(C(=O)CSc2nnc(-c3ccoc3C)n2Cc2ccco2)c2ccccn2)c1` were, in that order, over 15.8 µM and 0.398 µM.
As for `Cc1ccc(NC(=O)CSc2nnc(-c3ccoc3C)n2Cc2ccco2)c(C)c1`, the values for the Ki (in test [1]; on Orexin receptor type 2) were 1.26 µM and 0.501 µM, respectively.
Broadly, the IC50 is the point on the concentration scale where inhibition reaches its midpoint. A high value points to a need for much substance. For the compound `Cc1cc(C)cc(NC(=O)CSc2nnc(-c3ccoc3C)n2Cc2ccco2)c1`, the IC50 is over 5 µM on Cytochrome P450 2C19; over 5 µM on Cytochrome P450 2C9; over 5 µM against Cytochrome P450 1A2; 2 µM against Cytochrome P450 3A4 [3]; over 5 µM against Cytochrome P450 2D6; over 5 µM at Cytochrome P450 3A4 [5]. Also, the inhibition constant (Ki) is 0.794 µM in test [1] and 0.00158 µM at Orexin receptor type 2. In addition, the inhibition entry in test [2] and in [4] was “Active” throughout.
As for `COc1ccccc1NC(=O)CSc1nnc(-c2ccoc2C)n1Cc1ccco1`, the Ki was over 15.8 µM in test [1] and 0.501 µM at Orexin receptor type 2.
The like results for `Cc1cc(C)cc(N(C(=O)CSc2nnc(-c3ccoc3C)n2Cc2ccco2)C2CNCCN2)c1` (stereo not given) were, in that order, over 15.8 µM and 0.631 µM.
